What is called logP is a log measure of how a compound divides between an organic and an aqueous phase. Read a low logP as lower lipophilicity. Consider `COc1ccc2cc(C(C)C(=O)OCCOCCO)ccc2c1` (centres undefined), for which the logP was found to be 3.79. Under `COC(=O)C(C)c1ccc2cc(OC)ccc2c1` (centres undefined) stands 4.6. For `COc1ccc2cc(C(C)C(=O)OC3CCCCC3=O)ccc2c1` (centres undefined) the value was 4.96; for `CCCOC(=O)C(C)c1ccc2cc(OC)ccc2c1` (centres undefined), 5.34. Under `CCCCCOC(=O)C(C)c1ccc2cc(OC)ccc2c1` (centres undefined) stands 6.02. The molecule `COc1ccc2cc(C(C)C(=O)OC3CCCCC3)ccc2c1` (centres undefined) came in with a logP of 5.82. For `COc1ccc2cc(C(C)C(=O)OCCO)ccc2c1` (centres undefined) the value was 3.05. For `CCCCCCCCOC(=O)C(C)c1ccc2cc(OC)ccc2c1` (centres undefined) the value was 7.66.

In turn, `CCCCOC(=O)C(C)c1ccc2cc(OC)ccc2c1` (centres undefined) registered a logP of 5.81. For `COc1ccc2cc(C(C)C(=O)OCCCCCCO)ccc2c1` (centres undefined) the value was 4.74. For `CCC=CCCOC(=O)C(C)c1ccc2cc(OC)ccc2c1` (centres undefined) the value was 6.21; for `CCC#CCCOC(=O)C(C)c1ccc2cc(OC)ccc2c1` (centres undefined), 5.91; for `COc1ccc2cc(C(C)C(=O)OC3COC4C(O)COC34)ccc2c1` (centres undefined), 3.14. Molecule `CCOC(=O)C(C)c1ccc2cc(OC)ccc2c1` (centres undefined) came in with a logP of 4.78. For `COc1ccc2cc(C(C)C(=O)OCC=C(C)CCC=C(C)C)ccc2c1` (centres undefined) the value was 7.77; for `COc1ccc2cc(C(C)C(=O)OCC(C)O)ccc2c1` (centres undefined), 3.74. For `CC=CC=CCOC(=O)C(C)c1ccc2cc(OC)ccc2c1` (centres undefined) the value was 6.31; for `COc1ccc2cc(C(C)C(=O)Oc3ccccc3)ccc2c1` (centres undefined), 5.17; for `COc1ccc2cc(C(C)C(=O)OC(C)C)ccc2c1` (centres undefined), 4.98. Under `COc1ccc2cc(C(C)C(=O)OCC(C)=O)ccc2c1` (centres undefined) stands 4.06; under `CCCCCCOC(=O)C(C)c1ccc2cc(OC)ccc2c1` (centres undefined), 6.54; under `CCCCCCCOC(=O)C(C)c1ccc2cc(OC)ccc2c1` (centres undefined), 7.21. `COc1ccc2cc(C(C)C(=O)OCCCO)ccc2c1` (centres undefined): the lipophilicity (logP) was found to be 3.73. For `COc1ccc2cc(C(C)C(=O)OC3CCCCC3O)ccc2c1` (centres undefined) the value was 4.71.

For the origin of these results see the SangsterLogP compilation.
